Laboratory results reported in publication PMC11079024, “Identification of a family of species-selective complex I inhibitors as potential anthelmintics” (Nature Communications, 2024).
Values joined by “and” are separate entries in the source; they are usually repeats but may differ in a detail not shown here. Equal values may be shown once.

Experiments:
L1 wild-type C. elegans = assay: 15-hour motility assay with drug alone (no KCN); assay type: cell-based, Caenorhabditis elegans; conditions: 15 hour drug alone (without KCN) treatment
[1] = target: H. sapiens (HEK293 cells) complex I (Homo sapiens, UniProt O75251+O75306+P03886); assay: In vitro complex I activity assay, HEK293 cell mitochondria; assay type: biochemical
H. polygyrus [2] = assay: In vivo efficacy study in H. polygyrus mouse model; parameters: species or system NMRI mice infected with H. polygyrus; conditions: for # Mice cured/ # Mice investigated: assessed 1 week after dosing; for Median # of living H. polygyrus worms: median (MAD) of adults collected from intestine; for Live worms in intestine (individual mouse) / Live worms in intestine, Median (+/- MAD): worm burden one week after dose; for Live worms in intestine (individual mouse): Mouse 1-4, 200 mg/kg; for Live worms in intestine, Median (+/- MAD): three to four mice
Experimental: For in vivo testing, female 3-week old NMRI mice were purchased from Charles River, Germany. The mice were kept in individually ventilated cages (IVC) under environmentally controlled conditions (temperature: 22 °C ± 2 °C; relative humidity: 55% ± 15%; artificial lighting with a circadian cycle of 12 h of light) and had free access to water (municipal tap water supply) and rodent food. Rodents were allowed to acclimatize to the new environment for 1 week before infection. Upon 2 days of arrival, dexamethasone (0.25 mg/L) (Sigma-Aldrich, Switzerland) was added to the normal drinking water for immunosuppression to enable parasite establishment. After 1 week, mice were orally infected with 100 H. polygyrus third larval stage (L3) in 150 µL water.
Four benzimidazole derivatives were tested for in vivo efficacy. The administration of dexamethasone was stopped after 12 days post-infection and 2 days later, the selected four benzimidazole derivatives were administered by oral gavage at a single dose of 200 mg/kg to groups of each four mice. Four mice were left untreated and served as a control group. The derivatives were prepared as a Tween80 (Sigma-Aldrich, Switzerland)/ethanol (Merck, Germany) mixture dissolved in tap water (7:3:90, v/v). After 6–7 days post-dosing, the mice were euthanized with CO2 and dissected. Adult worms were removed from the intestine and counted. The worm burden reduction was calculated by comparing the number of worms found in the control animals versus the treated animals.

[3] = system: C. elegans ben-1 mutant strains ECA882, ECA917, ECA1075, ECA1080, CB3474; assay type: cell-based, Caenorhabditis elegans; conditions: score 0-1 relative to DMSO, values >1 set to 1
H. polygyrus [4] = conditions: single 300 mg/kg dose; cited from earlier work
[5] = single oral dose 200 mg/kg, vs untreated control mice
[6] = single oral dose of 200 mg/kg, median worm counts versus control mice

Sequence of H. sapiens (HEK293 cells) complex I (O75251 39-213): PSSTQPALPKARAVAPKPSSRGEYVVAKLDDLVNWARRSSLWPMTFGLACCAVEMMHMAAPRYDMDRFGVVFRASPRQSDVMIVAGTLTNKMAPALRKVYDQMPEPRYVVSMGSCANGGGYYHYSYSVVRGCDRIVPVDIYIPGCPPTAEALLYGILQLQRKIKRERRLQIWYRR
Sequence of H. sapiens (HEK293 cells) complex I (P03886 whole entry): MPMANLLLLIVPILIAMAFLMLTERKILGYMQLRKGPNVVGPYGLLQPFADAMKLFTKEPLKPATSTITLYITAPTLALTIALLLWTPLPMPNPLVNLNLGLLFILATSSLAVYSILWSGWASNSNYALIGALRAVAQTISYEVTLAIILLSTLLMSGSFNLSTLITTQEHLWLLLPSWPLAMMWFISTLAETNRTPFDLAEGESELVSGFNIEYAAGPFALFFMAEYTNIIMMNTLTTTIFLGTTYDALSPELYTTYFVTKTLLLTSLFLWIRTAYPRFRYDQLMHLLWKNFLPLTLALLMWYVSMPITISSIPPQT
Sequence of H. sapiens (HEK293 cells) complex I (O75306 34-463): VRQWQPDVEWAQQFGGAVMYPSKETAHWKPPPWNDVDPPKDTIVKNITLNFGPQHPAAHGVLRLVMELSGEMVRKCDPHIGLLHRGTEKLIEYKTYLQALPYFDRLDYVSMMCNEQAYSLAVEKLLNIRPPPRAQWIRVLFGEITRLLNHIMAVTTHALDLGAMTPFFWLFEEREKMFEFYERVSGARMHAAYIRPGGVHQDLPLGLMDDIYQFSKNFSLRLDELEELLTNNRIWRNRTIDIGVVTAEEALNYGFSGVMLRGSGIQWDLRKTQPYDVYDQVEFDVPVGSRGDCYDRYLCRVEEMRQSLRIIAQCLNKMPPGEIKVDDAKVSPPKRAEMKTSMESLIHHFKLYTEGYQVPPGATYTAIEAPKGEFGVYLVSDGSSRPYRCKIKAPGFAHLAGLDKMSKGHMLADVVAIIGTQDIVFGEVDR

## Cc1cc(O)c2c(c1)O[C@@]1(C)CC[C@H]3C(C)(C)CCC[C@]34CO[C@@H]2[C@H]41 [Siccanin]
L1 wild-type C. elegans; dose 0.1 µM, Mean of replicates
  Value relative to DMSO control, drug alone (without KCN): 1.015
L1 wild-type C. elegans; dose 0.1 µM, individual replicates
  Value relative to DMSO control, drug alone (without KCN): 1.185 and 1.067 and 1.014 and 0.891 and 0.918
L1 wild-type C. elegans; dose 0.2 µM, Mean of replicates
  Value relative to DMSO control, drug alone (without KCN): 1.093
L1 wild-type C. elegans; dose 0.2 µM, individual replicates
  Value relative to DMSO control, drug alone (without KCN): 1.232 and 1.040 and 1.048 and 0.936 and 1.206
L1 wild-type C. elegans; dose 0.4 µM, Mean of replicates
  Value relative to DMSO control, drug alone (without KCN): 1.048
L1 wild-type C. elegans; dose 0.4 µM, individual replicates
  Value relative to DMSO control, drug alone (without KCN): 1.109 and 1.211 and 1.036 and 0.917 and 0.964
L1 wild-type C. elegans; dose 0.8 µM, Mean of replicates
  Value relative to DMSO control, drug alone (without KCN): 1.013
L1 wild-type C. elegans; dose 0.8 µM, individual replicates
  Value relative to DMSO control, drug alone (without KCN): 1.207 and 1.062 and 0.959 and 0.891 and 0.945
L1 wild-type C. elegans; dose 3.1 µM, Mean of replicates
  Value relative to DMSO control, drug alone (without KCN): 1.008
L1 wild-type C. elegans; dose 3.1 µM, individual replicates
  Value relative to DMSO control, drug alone (without KCN): 1.037 and 1.098 and 0.979 and 0.904 and 1.020
L1 wild-type C. elegans; dose 6.3 µM, Mean of replicates
  Value relative to DMSO control, drug alone (without KCN): 0.898
L1 wild-type C. elegans; dose 6.3 µM, individual replicates
  Value relative to DMSO control, drug alone (without KCN): 0.890 and 0.970 and 0.950 and 0.655 and 1.026
L1 wild-type C. elegans; dose 12.5 µM, Mean of replicates
  Value relative to DMSO control, drug alone (without KCN): 0.790
L1 wild-type C. elegans; dose 12.5 µM, individual replicates
  Value relative to DMSO control, drug alone (without KCN): 1.073 and 0.897 and 0.844 and 0.477 and 0.657
L1 wild-type C. elegans; dose 25 µM, Mean of replicates
  Value relative to DMSO control, drug alone (without KCN): 0.737
L1 wild-type C. elegans; dose 25 µM, individual replicates
  Value relative to DMSO control, drug alone (without KCN): 0.991 and 0.757 and 0.575 and 0.705 and 0.658
L1 wild-type C. elegans; dose 50 µM, Mean of replicates
  Value relative to DMSO control, drug alone (without KCN): 0.668
L1 wild-type C. elegans; dose 50 µM, individual replicates
  Value relative to DMSO control, drug alone (without KCN): 0.587 and 0.826 and 0.603 and 0.513 and 0.810
L1 wild-type C. elegans; dose 100 µM, Mean of replicates
  Value relative to DMSO control, drug alone (without KCN): 0.433
L1 wild-type C. elegans; dose 100 µM, individual replicates
  Value relative to DMSO control, drug alone (without KCN): 0.545 and 0.463 and 0.295 and 0.375 and 0.488

## CC(C)Cc1ccc(C(C)c2nc3ccccc3n2C)cc1 (stereo not drawn) [NPD8790]
[1]; H. sapiens (HEK293 cells) mitochondria, 0.06 µM, Mean of replicates, read-out: in vitro complex I activity relative to solvent control
  remaining activity at 0.06 µM: 90.2%
[1]; H. sapiens (HEK293 cells) mitochondria, 0.13 µM, Mean of replicates, read-out: in vitro complex I activity relative to solvent control
  remaining activity at 0.13 µM: 78.3%
[1]; H. sapiens (HEK293 cells) mitochondria, 0.313 µM, Mean of replicates, read-out: in vitro complex I activity relative to solvent control
  remaining activity at 0.313 µM: 76.7%
[1]; H. sapiens (HEK293 cells) mitochondria, 0.625 µM, Mean of replicates, read-out: in vitro complex I activity relative to solvent control
  remaining activity at 0.625 µM: 129%
[1]; H. sapiens (HEK293 cells) mitochondria, 1.5 µM, Mean of replicates, read-out: in vitro complex I activity relative to solvent control
  remaining activity at 1.5 µM: 95.7%
[1]; H. sapiens (HEK293 cells) mitochondria, 3 µM, Mean of replicates, read-out: in vitro complex I activity relative to solvent control
  remaining activity at 3 µM: 102%
[1]; H. sapiens (HEK293 cells) mitochondria, 15 µM, Mean of replicates, read-out: in vitro complex I activity relative to solvent control
  remaining activity at 15 µM: 85.1%
[1]; H. sapiens (HEK293 cells) mitochondria, 37.5 µM, Mean of replicates, read-out: in vitro complex I activity relative to solvent control
  remaining activity at 37.5 µM: 52.8%
[1]; H. sapiens (HEK293 cells) mitochondria, 75 µM, Mean of replicates, read-out: in vitro complex I activity relative to solvent control
  remaining activity at 75 µM: 61.5%
[1]; mitochondria purified from HEK293 cells
  IC50: > 75 µM
H. polygyrus [2]; single oral dose 200 mg/kg
  # Mice cured/ # Mice investigated: 0/4
  Median # of living H. polygyrus worms: 95.5 (4.0)
H. polygyrus [2]; [5]
  % Worm burden reduction: 23.0%
H. polygyrus [2]; [6]
  % Worm burden reduction: 22.9839%
H. polygyrus [2]; single oral dose of 200 mg/kg
  Live worms in intestine (individual mouse): 93 and 52 and 101 and 98
  Live worms in intestine, Median (+/- MAD): 95.5 (4.0)

## COC(=O)Nc1nc2ccc(C(=O)c3ccccc3)cc2[nH]1 [mebendazole, reference compound]
[3]
  C. elegans L1 relative motility, 3-hour post 200 µM KCN dilution: 1.000
H. polygyrus [4]
  reduction in worm burden, H. polygyrus murine model: 63.5%

## Clc1ccc(SCCCCn2cnc3ccccc32)cc1 [Compound 7925515]
H. polygyrus [2]; single oral dose 200 mg/kg
  # Mice cured/ # Mice investigated: 0/4
  Median # of living H. polygyrus worms: 100.0 (8.0)
H. polygyrus [2]; [5]
  % Worm burden reduction: 19.4%
H. polygyrus [2]; [6]
  % Worm burden reduction: 19.3548%
H. polygyrus [2]; single oral dose of 200 mg/kg
  Live worms in intestine (individual mouse): 113 and 100 and 92
  Live worms in intestine, Median (+/- MAD): 100 (8.0)

## c1ccc2[nH]c(-c3cscn3)nc2c1 [Thiabendazole]
[3]
  C. elegans L1 relative motility, 3-hour post 200 µM KCN dilution: 1.000
